The text below walks through data of US4857652A, “Chemiluminescent 1,2-dioxetane compounds” (priority 1988, dated 1989).

The structures appear in SMILES notation.

In data set [1] the test system is alkaline phosphatase, Type VII-S from Bovine Intestinal Mucosa. Briefly: Enzymatic triggering of chemiluminescence with alkaline phosphatase (bovine). The conditions noted are these: 2-amino-2-methyl-1-propanol buffer pH 10.3, 37° C., 10 μL enzyme suspension. It counts as biochemical. Here is the method: A cuvette containing 3 mL of a buffer solution of 2-amino-2-methyl-1-propanol (Sigma Chemical Co., pH=10.3, 1.5M) was placed in the black box at 37° C. A portion (200 μL) of the dioxetane stock solution (6d in CH2 Cl2) was added to this buffer solution. Subsequent addition of 10 μL of an alkaline phosphatase suspension [Sigma, Type VII-S from Bovine Intestinal Mucosa, suspension in 3.2M (NH4)2 SO4 ] gave rise to chemiluminescence over a period of approximately 2-3 min indicating the enzymatic triggering of the dioxetane.

The conditions of data set [2]: 25° C.; cited from earlier work.

Molecule `O=P(O)(O)Oc1ccc2c(c1)Oc1ccccc1C21OOC12C1CC3CC(C1)CC2C3` (centres unmarked) [Dioxetane 6d, Dispiro[adamantane-2,3'-[1,2]dioxetane-4',9"-(3-phosphate-9H-xanthene]] registered a period of chemiluminescence in data set [1] of 2 to 3 min.

Consider `Oc1ccc(C23OCCOC2(c2ccccc2)OO3)cc1` (centres unmarked) [deprotonated dioxetane (X=O^-)], for which the “rate of decomposition relative to protonated form (X=OH)” value in data set [2] is 5.7×10^6 times.
